In patent US12643887B2, “Heterocyclic derivatives with cardiomyocyte proliferation activity for treatment of heart diseases” (Tongji University, priority 2019, dated 2026):

Tests used:
human GSK3 beta = biological target: T1, human GSK3 beta (Homo sapiens, UniProt P49841); test: GSK3 beta enzyme assay (ADP-Glo); assay type: biochemical; conditions: ATP 25 μM, read-out: GSK3b IC50
T1 construct: Recombinant full-length human GSK3 beta (expressed in Sf9 insect cells with an N-terminal His tag); His (N); purchased SignalChem G09-10H; host or cells: Sf9 insect cells
Method in brief: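 Full-length His-tagged human GSK3β from Sf9 cells (4 nM) preincubated 30 min at 25 °C with inhibitor in Tris pH 7.5/MgCl2/BSA/DTT, then reacted 60 min at 25 °C with 13 μM substrate peptide and 25 μM ATP. ADP measured by ADP-Glo luminescence; IC50 from four-parameter logistic fit of % inhibition.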

human HIPK2 = biological target: T2, human HIPK2 (Homo sapiens, UniProt Q9H2X6); test: HIPK2 enzyme assay (ADP-Glo); assay type: biochemical; conditions: ADP-Glo, ATP 5 μM; read-out: HIPK2 IC50
T2 construct: Recombinant human HIPK2 (1-640); GST (N); purchased SignalChem H04-11BG; host or cells: Sf9 insect cells
Method in brief: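 GST-tagged HIPK2 (1-640) from Sf9, 1 nM, preincubated 30 min at 25° C with inhibitor in 40 mM Tris pH 7.5, 20 mM MgCl2. Reaction ran 90 min at 25° C with GST-MBP substrate at 0.05 mg/ml and 5 μM ATP. ADP-Glo luminescence; IC50 by four-parameter logistic fit.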

T1 sequence (P49841 whole entry): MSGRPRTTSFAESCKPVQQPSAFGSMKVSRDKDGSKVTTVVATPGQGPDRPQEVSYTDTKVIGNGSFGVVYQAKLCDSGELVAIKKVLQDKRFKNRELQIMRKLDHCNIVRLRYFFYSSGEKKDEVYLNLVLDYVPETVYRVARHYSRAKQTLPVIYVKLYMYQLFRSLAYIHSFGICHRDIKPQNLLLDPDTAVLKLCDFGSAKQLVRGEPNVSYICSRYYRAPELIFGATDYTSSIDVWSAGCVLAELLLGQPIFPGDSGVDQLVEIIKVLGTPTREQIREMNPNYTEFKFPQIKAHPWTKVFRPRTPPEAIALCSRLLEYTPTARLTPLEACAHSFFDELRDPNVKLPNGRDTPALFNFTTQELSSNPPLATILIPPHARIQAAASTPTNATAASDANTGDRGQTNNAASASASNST
T2 sequence (Q9H2X6 1-640): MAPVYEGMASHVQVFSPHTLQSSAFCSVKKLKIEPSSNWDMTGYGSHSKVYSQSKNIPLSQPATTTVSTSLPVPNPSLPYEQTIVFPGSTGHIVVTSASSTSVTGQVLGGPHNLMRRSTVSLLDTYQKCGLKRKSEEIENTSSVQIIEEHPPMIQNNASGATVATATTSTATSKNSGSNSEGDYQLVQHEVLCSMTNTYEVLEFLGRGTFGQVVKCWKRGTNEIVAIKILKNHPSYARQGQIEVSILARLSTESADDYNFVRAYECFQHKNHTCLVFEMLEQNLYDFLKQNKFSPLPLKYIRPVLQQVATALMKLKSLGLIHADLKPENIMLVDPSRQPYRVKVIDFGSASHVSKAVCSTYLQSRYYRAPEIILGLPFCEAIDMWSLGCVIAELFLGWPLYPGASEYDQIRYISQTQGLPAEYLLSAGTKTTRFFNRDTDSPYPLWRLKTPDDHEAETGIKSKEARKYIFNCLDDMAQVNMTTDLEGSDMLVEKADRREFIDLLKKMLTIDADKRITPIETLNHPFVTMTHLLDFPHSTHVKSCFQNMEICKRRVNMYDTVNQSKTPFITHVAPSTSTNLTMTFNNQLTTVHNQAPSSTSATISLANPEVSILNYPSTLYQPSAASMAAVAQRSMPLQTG

Cn1ncc2cc(/C=C3\N=C(Nc4ccccc4)NC3=O)ccc21 [Example 77, (Z)-5-((1-methyl-1H-indazol-5-yl)methylene)-2-(phenylamino)-3,5-dihydro-4H-imidazol-4-one]
IC50 (human GSK3 beta): > 10 µM
IC50 (human HIPK2): > 10000 nM

Cn1ncc2cc(/C=C3\N=C(Nc4ccc5ncsc5c4)NC3=O)ccc21 [Example 78, (Z)-2-(benzo[d]thiazol-6-ylamino)-5-((1-methyl-1H-indazol-5-yl)methylene)-3,5-dihydro-4H-imidazol-4-one]
IC50 (human GSK3 beta): > 10 µM
IC50 (human HIPK2): > 10000 nM

Cn1ncc2ccc(/C=C3\N=C(Nc4ccccc4)NC3=O)cc21 [Example 79, 5-((1-methyl-1H-indazol-6-yl)methylene)-2-(phenylamino)-3,5-dihydro-4H-imidazol-4-one]
IC50 (human GSK3 beta): > 10 µM
IC50 (human HIPK2): > 10000 nM

Cn1ncc2ccc(/C=C3\N=C(Nc4ccc5ncsc5c4)NC3=O)cc21 [Example 80, (Z)-2-(benzo[d]thiazol-6-ylamino)-5-((1-methyl-1H-indazol-6-yl)methylene)-3,5-dihydro-4H-imidazol-4-one]
IC50 (human GSK3 beta): > 10 µM
IC50 (human HIPK2): > 10000 nM

O=C1NC(Nc2ccc3c(c2)OCCO3)=N/C1=C\c1ccc2ncsc2c1 [Example 81, (Z)-5-(benzo[d]thiazol-6-ylmethylene)-2-((2,3-dihydrobenzo[b][1,4]dioxin-6-yl)amino)-3,5-dihydro-4H-imidazol-4-one]
IC50 (human GSK3 beta): 0.1 to 1 µM
IC50 (human HIPK2): < 100 nM

O=C1NC(Nc2ccc3nccnc3c2)=N/C1=C\c1ccc2ncsc2c1 [Example 82, (Z)-5-(benzo[d]thiazol-6-ylmethylene)-2-(quinoxalin-6-ylamino)-3,5-dihydro-4H-imidazol-4-one]
IC50 (human GSK3 beta): 0.1 to 1 µM
IC50 (human HIPK2): 100 to 1000 nM

CN(C1=N/C(=C\c2ccc3ncsc3c2)C(=O)N1)c1ccc2ncsc2c1 [Example 83, (Z)-2-(benzo[d]thiazol-6-yl(methyl)amino)-5-(benzo[d]thiazol-6-ylmethylene)-3,5-dihydro-4H-imidazol-4-one]
IC50 (human GSK3 beta): 1 to 10 µM
IC50 (human HIPK2): > 10000 nM

CN(C1=N/C(=C\c2ccc3c(c2)OCCO3)C(=O)N1)c1ccc2ncsc2c1 [Example 84, (Z)-2-(benzo[d]thiazol-6-yl(methyl)amino)-5-((2,3-dihydrobenzo[b][1,4]dioxin-6-yl)methylene)-3,5-dihydro-4H-imidazol-4-one]
IC50 (human GSK3 beta): 1 to 10 µM
IC50 (human HIPK2): 1000 to 10000 nM

O=C1NC(Nc2ccc3ncsc3c2)=NC1Cc1ccc2ncsc2c1 (stereo not drawn) [Example 102, 2-(benzo[d]thiazol-6-ylamino)-5-(benzo[d]thiazol-6-ylmethyl)-3,5-dihydro-4H-imidazol-4-one]
IC50 (human GSK3 beta): > 10 µM
IC50 (human HIPK2): 100 to 1000 nM

NC1=N/C(=C\c2ccc3ncsc3c2)C(=O)N1 [Example 103, (Z)-2-amino-5-(benzo[d]thiazol-6-ylmethylene)-3,5-dihydro-4H-imidazol-4-one]
IC50 (human GSK3 beta): 1 to 10 µM
IC50 (human HIPK2): 100 to 1000 nM

O=C1NC(Nc2ccc3nc(Nc4ccccc4)sc3c2)=N/C1=C\c1ccc2ncsc2c1 [Example 104, (Z)-5-(benzo[d]thiazol-6-ylmethylene)-2-((2-(phenylamino)benzo[d]thiazol-6-yl)amino)-3,5-dihydro-4H-imidazol-4-one]
IC50 (human GSK3 beta): > 10 µM
IC50 (human HIPK2): 1000 to 10000 nM

O=C1NC(N(CC2CC2)c2ccc3ncsc3c2)=N/C1=C\c1ccc2ncsc2c1 [Example 105, (Z)-2-(benzo[d]thiazol-6-yl(cyclopropylmethyl)amino)-5-(benzo[d]thiazol-6-ylmethylene)-3,5-dihydro-4H-imidazol-4-one]
IC50 (human GSK3 beta): > 10 µM
IC50 (human HIPK2): > 10000 nM
